The results in this text go back to ChEMBL document CHEMBL6074684, “Structure-activity relationship study of novel evodiamine amino acid conjugates with potent anti-colorectal cancer efficacy” (Eur J Med Chem, 2025).

Each structure is given as a SMILES string. Where only a bound is given, the exact number is not on record here.

Broadly, the IC50 is the midpoint of a concentration-inhibition curve.

Common to all, as to format: functional, cell-based
The test system of one assay is SK-HEP1. Kind of assay: Antiproliferative activity against human SK-HEP1 cells assessed as inhibition of cell growth incubated for 72 hrs by MTT assay. The following applies: SK-HEP1, 72 h.
A further assay has as its system HGC-27. The assay is described as follows: Antiproliferative activity against human HGC-27 cells assessed as inhibition of cell growth incubated for 72 hrs by MTT assay. The conditions noted are these: HGC-27, 72 h. In general terms: Formazan colour is commonly taken as a measure of viable cells.
The test system of a further assay is MGC-803. The assay is described as follows: Antiproliferative activity against human MGC-803 cells assessed as inhibition of cell growth incubated for 72 hrs by MTT assay. The conditions noted are these: MGC-803, 72 h.
Another assay deals with HCT-116. The assay is described as follows: Antiproliferative activity against human […] cells assessed as inhibition of cell growth incubated for 72 hrs by MTT assay. The following applies: HCT-116, 72 h.
The subject of another assay is SGC-7901. The assay is described as follows: Antiproliferative activity against human SGC-7901 cells assessed as inhibition of cell growth incubated for 72 hrs by MTT assay. The conditions noted are these: SGC-7901, 72 h.
In a further assay the test system is MCF7. The assay is described as follows: Antiproliferative activity against human MCF7 cells assessed as inhibition of cell growth incubated for 72 hrs by MTT assay. The conditions noted are these: MCF7, 72 h.
The next assay deals with RKO. Kind of assay: Antiproliferative activity against human RKO cells assessed as inhibition of cell growth incubated for 72 hrs by MTT assay.
The subject of another assay is HT-29. The assay is described as follows: Antiproliferative activity against human HT-29 cells assessed as inhibition of cell growth incubated for 72 hrs by MTT assay. The following applies: HT-29, 72 h.
The next assay has as its system Huh-7. Kind of assay: Antiproliferative activity against human Huh-7 cells assessed as inhibition of cell growth incubated for 72 hrs by MTT assay. The conditions noted are these: Huh-7, 72 h.
For the next assay, the system named is LoVo. Kind of assay: Antiproliferative activity against human LoVo cells assessed as inhibition of cell growth incubated for 72 hrs by MTT assay.

Take `CC(C)C[C@H](NC(=O)OC(C)(C)C)C(=O)Oc1ccc2[nH]c3c(c2c1)CCN1C(=O)c2cc(F)ccc2N(c2cccc(F)c2)[C@@H]31`: the 50% inhibitory concentration (IC50) stood at 35.1 µM in the assay on SK-HEP1; 18.6 µM in the assay with HGC-27; 7.56 µM in the assay with MGC-803; 16.8 µM with HCT-116; 41.8 µM in the assay with SGC-7901; 22.7 µM with MCF7. Further, the concentration for half-maximal inhibition (IC50) amounted to 10.5 µM in the assay with RKO, 21.4 µM in the assay on HT-29, 9.73 µM with Huh-7 and 10.2 µM in the assay with LoVo.

Take `CC(C)(C)OC(=O)N[C@@H](Cc1c[nH]c2ccccc12)C(=O)Oc1ccc2[nH]c3c(c2c1)CCN1C(=O)c2cc(F)ccc2N(c2cccc(F)c2)[C@@H]31`: the IC50 is 36.6 µM in the assay on SK-HEP1; 25.6 µM with HGC-27; 18.6 µM in the assay on MGC-803; 24.2 µM in the assay on HCT-116; 67.3 µM in the assay with SGC-7901; 30.6 µM in the assay on MCF7. Besides, the concentration for half-maximal inhibition (IC50) in the assay on RKO was determined as 15.9 µM; in the assay on HT-29, 30.2 µM; in the assay with Huh-7, 13.5 µM; with LoVo, 18.3 µM.

For the compound `CC(C)[C@H](NC(=O)OC(C)(C)C)C(=O)Oc1ccc2[nH]c3c(c2c1)CCN1C(=O)c2cc(F)ccc2N(c2cccc(F)c2)[C@@H]31`, the concentration for half-maximal inhibition (IC50) with SK-HEP1 is 37.8 µM; in the assay with HGC-27, 22.3 µM; with MGC-803 it was 20.8 µM; with HCT-116, 29 µM; with SGC-7901, 44.3 µM; in the assay on MCF7 it was 30.4 µM. The concentration for half-maximal inhibition (IC50) in the assay with RKO came to 11.9 µM; with HT-29, 25.8 µM; with Huh-7, 14.2 µM; in the assay on LoVo, 21.9 µM.

With `C[C@H](NC(=O)OC(C)(C)C)C(=O)Oc1ccc2[nH]c3c(c2c1)CCN1C(=O)c2cc(F)ccc2N(c2cccc(F)c2)[C@@H]31`, the 50% inhibitory concentration (IC50) in the assay with SK-HEP1 was 26.6 µM; in the assay with HGC-27 it was 20.3 µM; with MGC-803, 11.3 µM; in the assay with HCT-116 it was 18.2 µM; in the assay on SGC-7901, 40.2 µM; in the assay on MCF7 it was 28.5 µM. The IC50 in the assay with RKO was 15.9 µM; with HT-29, 18.6 µM; with Huh-7, 11.7 µM; with LoVo, 19.7 µM.

Consider `CSCC[C@H](NC(=O)OC(C)(C)C)C(=O)Oc1ccc2[nH]c3c(c2c1)CCN1C(=O)c2cc(F)ccc2N(c2cccc(F)c2)[C@@H]31`, for which the IC50 is 38.5 µM in the assay with SK-HEP1; 28.6 µM with HGC-27; 17.8 µM in the assay on MGC-803; 20.2 µM with HCT-116; 46.1 µM in the assay on SGC-7901; 50.5 µM in the assay on MCF7. The IC50 in the assay with RKO stood at 20.5 µM; in the assay with HT-29 it was 28.7 µM; with Huh-7 it was 13.8 µM; in the assay on LoVo, 14.9 µM.

Consider `CC(C)(C)OC(=O)N[C@@H](Cc1c[nH]c2ccccc12)C(=O)Oc1ccc2[nH]c3c(c2c1)CCN1C(=O)c2cc(F)ccc2N(c2cccc(F)c2)[C@H]31`, for which the 50% inhibitory concentration (IC50) in the assay on SK-HEP1 turned out to be 0.9 µM; with HGC-27 it was 0.33 µM; in the assay with MGC-803, 0.69 µM; in the assay with HCT-116, 0.28 µM; with SGC-7901, 1.48 µM; in the assay with MCF7 it was 1.28 µM. Also, the IC50 in the assay with RKO stood at 0.08 µM; in the assay on HT-29 it was 0.54 µM; in the assay on Huh-7, 0.4 µM; in the assay with LoVo, 0.25 µM.

Turning to `CC(C)(C)OC(=O)N[C@@H](COCc1ccccc1)C(=O)Oc1ccc2[nH]c3c(c2c1)CCN1C(=O)c2cc(F)ccc2N(c2cccc(F)c2)[C@H]31`, the IC50 in the assay with SK-HEP1 was 0.65 µM; in the assay with HGC-27, 0.32 µM; with MGC-803, 0.41 µM; in the assay on HCT-116, 0.4 µM; with SGC-7901, 0.54 µM; with MCF7, 0.83 µM. Also, the IC50 is 0.11 µM with RKO, 0.38 µM with HT-29, 0.3 µM in the assay on Huh-7 and 0.19 µM in the assay with LoVo.

For the compound `CC(C)[C@H](NC(=O)OC(C)(C)C)C(=O)Oc1ccc2[nH]c3c(c2c1)CCN1C(=O)c2cc(F)ccc2N(c2cccc(F)c2)[C@H]31`, the IC50 with SK-HEP1 came out at 1.15 µM; with HGC-27 it was 0.42 µM; in the assay with MGC-803, 0.38 µM; with HCT-116, 0.43 µM; in the assay with SGC-7901, 0.81 µM; with MCF7, 0.98 µM. The IC50 is 0.2 µM in the assay on RKO, 0.34 µM with HT-29, 0.28 µM with Huh-7 and 0.29 µM in the assay with LoVo.

As for `CSCC[C@H](NC(=O)OC(C)(C)C)C(=O)Oc1ccc2[nH]c3c(c2c1)CCN1C(=O)c2cc(F)ccc2N(c2cccc(F)c2)[C@H]31`, the IC50 was found to be 0.68 µM in the assay on SK-HEP1; 0.21 µM with HGC-27; 0.33 µM in the assay with MGC-803; 0.36 µM in the assay on HCT-116; 0.51 µM in the assay with SGC-7901; 0.78 µM in the assay with MCF7. For the same compound, the IC50 amounted to 0.14 µM in the assay with RKO, 0.33 µM with HT-29, 0.21 µM with Huh-7 and 0.2 µM in the assay with LoVo.

Consider `CC(C)(C)OC(=O)N[C@@H](Cc1cnc[nH]1)C(=O)Oc1ccc2[nH]c3c(c2c1)CCN1C(=O)c2cc(F)ccc2N(c2cccc(F)c2)[C@@H]31`, for which the IC50 in the assay on SK-HEP1 was 33.5 µM; with HGC-27, 23.7 µM; in the assay on MGC-803 it was 15.5 µM; with HCT-116, 21 µM; in the assay with SGC-7901, 66.5 µM; in the assay with MCF7, 47 µM. The IC50 in the assay with RKO is 16.3 µM; with HT-29, 28.3 µM; with Huh-7, 12.8 µM; with LoVo, 12.4 µM.

On to `CCC(C)[C@H](NC(=O)OC(C)(C)C)C(=O)Oc1ccc2[nH]c3c(c2c1)CCN1C(=O)c2cc(F)ccc2N(c2cccc(F)c2)[C@@H]31` (some centres undefined), for which the IC50 is 62.4 µM with SK-HEP1; 55.7 µM in the assay on HGC-27; above 100 µM in the assay on MGC-803; above 100 µM in the assay on HCT-116; above 100 µM in the assay with SGC-7901; 69.8 µM with MCF7. The IC50 with RKO was above 100 µM; in the assay with HT-29, 52.5 µM; in the assay with Huh-7 it was 46 µM; in the assay on LoVo, 55.8 µM.

For `CC(C)(C)OC(=O)N[C@@H](COCc1ccccc1)C(=O)Oc1ccc2[nH]c3c(c2c1)CCN1C(=O)c2cc(F)ccc2N(c2cccc(F)c2)[C@@H]31`, the IC50 with SK-HEP1 was 35.9 µM; in the assay with HGC-27, 20.6 µM; in the assay on MGC-803, 16.2 µM; in the assay on HCT-116, 24.6 µM; in the assay with SGC-7901 it was 57.1 µM; in the assay with MCF7, 22.1 µM. For the same compound, the IC50 amounted to 16.8 µM with RKO, 29.4 µM with HT-29, 10.1 µM in the assay with Huh-7 and 15.3 µM with LoVo.

As for `CC(C)(C)OC(=O)NCC(=O)Oc1ccc2[nH]c3c(c2c1)CCN1C(=O)c2cc(F)ccc2N(c2cccc(F)c2)[C@@H]31`, the concentration for half-maximal inhibition (IC50) in the assay with SK-HEP1 was 30.5 µM; in the assay with HGC-27 it was 32.1 µM; in the assay with MGC-803 it was 29.6 µM; in the assay on HCT-116, 33.1 µM; in the assay on SGC-7901, 42.6 µM; in the assay on MCF7, 38.9 µM. Moreover, the IC50 in the assay with RKO was 38.6 µM; with HT-29, 24.1 µM; with Huh-7, 17.2 µM; in the assay on LoVo, 26.4 µM.

For the compound `CC(C)(C)OC(=O)N[C@@H](Cc1cnc[nH]1)C(=O)Oc1ccc2[nH]c3c(c2c1)CCN1C(=O)c2cc(F)ccc2N(c2cccc(F)c2)[C@H]31`, the half-maximal inhibitory concentration (IC50) in the assay on SK-HEP1 turned out to be 0.77 µM; with HGC-27, 0.16 µM; in the assay on MGC-803, 0.2 µM; with HCT-116, 0.36 µM; in the assay with SGC-7901, 0.23 µM; with MCF7 it was 0.74 µM. The IC50 is 0.11 µM with RKO, 0.36 µM in the assay with HT-29, 0.27 µM in the assay on Huh-7 and 0.12 µM in the assay with LoVo.

In the case of `CC(C)(C)OC(=O)N[C@@H](Cc1ccccc1)C(=O)Oc1ccc2[nH]c3c(c2c1)CCN1C(=O)c2cc(F)ccc2N(c2cccc(F)c2)[C@H]31`, the IC50 with SK-HEP1 was 0.77 µM; with HGC-27 it was 0.28 µM; in the assay on MGC-803 it was 0.22 µM; in the assay on HCT-116 it was 0.36 µM; with SGC-7901, 0.49 µM; in the assay with MCF7 it was 0.95 µM. Also, the IC50 in the assay with RKO stood at 0.09 µM; with HT-29, 0.43 µM; in the assay with Huh-7, 0.2 µM; with LoVo, 0.23 µM.

In the case of `CC(C)(C)OC(=O)NCC(=O)Oc1ccc2[nH]c3c(c2c1)CCN1C(=O)c2cc(F)ccc2N(c2cccc(F)c2)[C@H]31`, the IC50 in the assay with SK-HEP1 was 1.39 µM; in the assay on HGC-27, 0.2 µM; in the assay with MGC-803, 0.21 µM; with HCT-116, 0.2 µM; with SGC-7901, 0.48 µM; in the assay on MCF7 it was 1.19 µM. Besides, the IC50 stood at 0.095 µM in the assay on RKO, 0.26 µM in the assay on HT-29, 0.16 µM in the assay on Huh-7 and 0.17 µM with LoVo.

Consider `C[C@H](NC(=O)OC(C)(C)C)C(=O)Oc1ccc2[nH]c3c(c2c1)CCN1C(=O)c2cc(F)ccc2N(c2cccc(F)c2)[C@H]31`, for which the IC50 in the assay with SK-HEP1 is 2.65 µM; in the assay with HGC-27, 0.27 µM; in the assay on MGC-803, 0.31 µM; with HCT-116, 0.37 µM; in the assay on SGC-7901 it was 0.63 µM; in the assay with MCF7, 1.98 µM. Moreover, the IC50 in the assay with RKO is 0.12 µM; in the assay with HT-29 it was 0.28 µM; with Huh-7, 0.16 µM; in the assay with LoVo, 0.23 µM.

In the case of `O=C1c2cc(F)ccc2N(c2cccc(F)c2)[C@H]2c3[nH]c4ccc(O)cc4c3CCN12`, the IC50 in the assay on HCT-116 was determined as 0.35 µM; in the assay on RKO, 0.1 µM; with HT-29, 0.18 µM; in the assay with LoVo, 0.13 µM.
